The record followed here is patent US6924305B2, “Diazocine derivatives and their use as tryptase inhibitors” (Altana Pharma AG, priority 2001, dated 2005).

For the assay, the target named is human tryptase. In words: Inhibition of human tryptase (apparent dissociation constant, chromogenic substrate tos-Gly-Pro-arg-pNA). In kind it is biochemical. As to conditions: pKiapp = -log Kiapp (mol/l), in presence of substrate, heparin 0.1-50 μg/ml, equilibrium conditions. The text has this:
The documented pathophysiological effects of mast cell tryptase are caused directly by the enzymatic activity of the protease. Accordingly, they are reduced or blocked by inhibitors which inhibit the enzymatic activity of the tryptase. A suitable measure for the affinity of a reversible inhibitor to the target protease is the equilibrium dissociation constant K1 of the enzyme-inhibitor complex. This K1 value can be determined via the effect of the inhibitor on the tryptase-induced cleavage of a chromogenic peptide-p-nitroanilide substrate or a fluorogenic peptide-aminomethylcoumarin substrate.
The dissociation constants for the tryptase-inhibitor complexes are determined under equilibrium conditions in accordance with the general proposals of Bieth (Bieth J G, Pathophysiological Interpretation of kinetic constants of protease inhibitors, Bull. Europ. Physiopath. Resp. 16:183-195, 1980) and the methods of Sommerhoff et al. (Sommerhoff C P et al., A Kazal-type inhibitor of human mast cell tryptase: Isolation from the medical leech Hirudo medicinalis, characterization, and sequence analysis, Biol. Chem. Hoppe-Seyler 375: 685-694, 1994).
Human tryptase is isolated from lung tissue or prepared recombinantly; the specific activity of the protease, determined by titration, is usually greater than 85% of the theoretical value. In the presence of heparin (0.1-50 μg/ml) for stabilizing the protease, constant amounts of the tryptase are incubated with increasing amounts of the inhibitors. After an equilibrium between the reaction partners has formed, the remaining enzyme activity after addition of the peptide-p-nitroanilide substrate tos-Gly-Pro-arg-pNA is determined and the cleavage of the latter is monitored at 405 nm for 3 min. Alternatively, the remaining enzymatic activity can also be determined using fluorogenic substrates. The apparent dissociation constants Klapp (i.e. in the presence of substrate) are subsequently determined by adapting the enzyme rates to the general equation for reversible inhibitors (Morrison J F, Kinetics of the reversible inhibition of enzyme-catalyzed reactions by tight-binding inhibitors, Biochim. Biophys. Acta 185, 269-286, 1969) using non-linear regression: V1/V0=1−{Et+It+Klapp−(Et+ItKlapp)^2−4EtIt]^1/2}/2Et V1 and V0 are the rates in the presence and absence, respectively, of the inhibitor, and Et and It are the tryptase and inhibitor concentrations, respectively.
The apparent dissociation constants determined for the compounds according to the invention are shown in Table A below, where the numbers of the compounds correspond to the numbers of the compounds in the examples [pKlapp=−logKlapp (mol/l)].

In the case of `COC(=O)C1CC(NC(=O)CN2CCC(=O)N(CC(=O)NC3CC(C(=O)OC)N(C(=O)CCc4ccc(CN)cc4)C3)CCC2=O)CN1C(=O)CCc1ccc(CN)cc1.Cl.Cl` (centres unmarked) [Compound 1, 1,5-Bis{N,N′-[1-(3-(4-aminomethylphenyl)propionyl)-2-methoxycarbonylpyrrolidin-4-yl]aminocarbonylmethyl}perhydro-1,5-diazocine-2,6-dione dihydrochloride], the pKiapp is given as 9.05.
`Cl.Cl.NCc1ccc(CCC(=O)N2CC(NC(=O)CN3CCC(=O)N(CC(=O)NC4CC(C(=O)OCc5ccccc5)N(C(=O)CCc5ccc(CN)cc5)C4)CCC3=O)CC2C(=O)OCc2ccccc2)cc1` (centres unmarked) [Compound 2, 1,5-Bis{N,N′-[1-(3-(4-aminomethylphenyl)propionyl)-2-benzyloxycarbonylpyrrolidin-4-yl]aminocarbonylmethyl}perhydro-1,5-diazocine-2,6-dione dihydrochloride]: the pKiapp was found to be 9.22.
For `Cl.Cl.NCc1ccc(CCC(=O)N2CC(NC(=O)CN3CCC(=O)N(CC(=O)NC4CC(C(=O)O)N(C(=O)CCc5ccc(CN)cc5)C4)CCC3=O)CC2C(=O)O)cc1` (centres unmarked) [Compound 3, 1,5-Bis{N,N′-[1-(3-(4-aminomethylphenyl)proplonyl)-2-carboxypyrrlidin-4-yl]-aminocarbonylmethyl}perhydro-1,5-diazocine-2,6-dine dihydrochloride] the value was 7.43; for `Cl.Cl.NCc1ccc(CCC(=O)N2CC(NC(=O)CN3CCC(=O)N(CC(=O)NC4CC(C(=O)NC5CC5)N(C(=O)CCc5ccc(CN)cc5)C4)CCC3=O)CC2C(=O)NC2CC2)cc1` (centres unmarked) [Compound 4, 1,5-Bis{N,N′-[1-(3-(4-aminomethylphenyl)propionyl)-2-cyclopropylaminocarbonyl-pyrrolidin-4-yl]aminocarbonylmethyl}perhydro-1,5-diazocine-2,6-dione dihydrochloride], 9.66.
In the case of `Cl.Cl.NCc1ccc(CCC(=O)N2CC(NC(=O)CN3CCC(=O)N(CC(=O)NC4CC(C(N)=O)N(C(=O)CCc5ccc(CN)cc5)C4)CCC3=O)CC2C(N)=O)cc1` (centres unmarked) [Compound 5, 1,5-Bis{N,N′-[1-(3-(4-aminomethylphenyl)proplonyl)-2-aminocarbonylpyrrolidin-4-yl]-aminocarbonylmethyl}perhydro-1,5-diazocine-2,6-dione dihydrochloride] it was 8.80.
